These results are taken from PubChem BioAssay AID1259408 (Genetic Toxicology Data Bank (GENE-TOX), 2018).

The data set relates to GENE-TOX genotoxicity assays, various organisms and cells. The experiment in a line: GENE-TOX mutagenicity studies.
Setting [1] is: Species/Cell Type: Mammalian polychromatic erythrocytes, Assay Type: Micronucleus test, chromosome aberrations, Assay Code: MNT+, Evaluation Type: Evaluation B (Post-1980).

Activity calls are given as the source filed them. The rule behind the calls is not given here.

Regarding `O=C1OC2(c3ccccc31)c1cc(I)c(O)c(I)c1Oc1c2cc(I)c(O)c1I`, the mutagenic call is “inactive; negative” (Species/Cell Type: Bacillus subtilis (H17 vs M45), Assay Type: Rec-assay, spot test, DNA effects (bacterial DNA repair), Assay Code: REW-, Evaluation Type: Evaluation A (Pre-1980)); “no conclusion” (Species/Cell Type: Bacillus subtilis (H17 vs M45T), Assay Type: Rec-assay, spot test, DNA effects (bacterial DNA repair), Assay Code: REXT, Evaluation Type: Evaluation A (Pre-1980)); “active; positive” under setting [1]; “inactive; negative” (Species/Cell Type: Saccharomyces cerevisiae, Assay Type: Mitotic recombination or gene conversion, Assay Code: YEC-, Evaluation Type: Evaluation A (Pre-1980)); “inactive; negative” (Species/Cell Type: Salmonella typhimurium (one or more of the five standard strains: TA98, TA100, TA1535, TA1537, and TA1538), Assay Type: Histidine reverse gene mutation, Ames assay, Assay Code: SAL-, Evaluation Type: Evaluation A (Pre-1980)).

`COC12C(=O)N(C)C(=O)N(C)C1(OC)N(C)C(=O)N2C` (stereo not drawn): the mutagenic call (Species/Cell Type: Allium cepa, Assay Type: Chromosome aberrations, Assay Code: ALC-, Evaluation Type: Evaluation A (Pre-1980)) was “inactive; negative”.

As for `Oc1cccc(O)c1O`, the mutagenic call reads like this: (Species/Cell Type: Allium cepa, Assay Type: Chromosome aberrations, Assay Code: ALC+, Evaluation Type: Evaluation A (Pre-1980)) “active; positive”; under setting [1], “active; positive”.
